The source of these data is US9328386B2, “Markers for susceptibility to an inhibitor of an Src-family kinase” (Evotec (München) GmbH, priority 2011, dated 2016).

One test relates to H2887 NSCLC cell line. The test can be described thus: Cellular growth inhibition (CellTiter Glo viability assay). It is filed as cell-based. To be noted: Homo sapiens, NCI-H2887, 96 h; read-out: GI50 this paper. A general note: In ATP-based viability assays light output follows the ATP content of the culture.
The subject of the next test is H322 NSCLC cell line. The description is as above. Particulars: Homo sapiens, NCI-H322, 96 h; read-out: GI50 this paper. It counts as cell-based.
In test [1] the test system is MDA-MB-468 breast cancer cell line. The description is as above. Particulars: Homo sapiens, MDA-MB-468, 96 h; read-out: GI50 this paper. It counts as cell-based.
Another test concerns H1666 NSCLC cell line. Particulars: dasatinib, cited from earlier work.
The next test concerns H647 NSCLC cell line. Particulars: dasatinib, cited from earlier work.
The subject of a further test is HCC4006 NSCLC cell line. Particulars: dasatinib, cited from earlier work.
The subject of the next test is PC9 NSCLC cell line. Particulars: dasatinib, cited from earlier work.
The test system of test [2] is BT-20 breast cancer cell line. To be noted: dasatinib, cited from earlier work.
Test [3] deals with MDA-MB-231 breast cancer cell line. Particulars: dasatinib, cited from earlier work.
The next test relates to advanced NSCLC. To be noted: among thirty-four patients with advanced NSCLC; Johnson, Bekele et al., 2010; cited from earlier work.
The next test addresses T1, EPHA2 (Homo sapiens, UniProt P29317).
T1 construct: PC9 cells were lysed in buffer containing 20 mM HEPES pH 7.5; endogenous in cells; host or cells: PC9 cell extract
Briefly: KinAffinity target profiling. It counts as binding. Particulars: PC9 cell extract, read-out: KD_free. Here is the method: (§1) For in vitro association experiments 4×10^8 PC9 cells were lysed in buffer containing 20 mM HEPES pH 7.5, 400 mM NaCl. 0.25% Triton X-100, 1 mM DTT, 1.5 mM MgCl2, 0.5 mM ZnCl2, 0.5 mM EDTA, 0.5 mM EGTA, 1600 U/ml Benzonase plus additives (10 μg/ml aprotinin, 10 μg/ml leupeptin, 1 mM PMSF, 1 mM Na3VO4, 10 mM NaF). After centrifugation the supernatant was adjusted to 1 M NaCl, filtered through a 0.45 μm celluloseacetate filter and subjected to KinAffinity™ beads representing several different broad-spectrum kinase inhibitors immobilized on Sepharose beads. For each in vitro association experiment 750 μl cell extract (4 mg/ml) were incubated with 30 μl KinAffinity™ beads for 2.5 h at 4° C. […] Alternatively, the inhibitor (3 nM, 30 nM, 100 nM, 300 nM, 3 μM) and KinAffinity™ beads were added simultaneously to the cell extract. […] The extracted peptides were derivatized for quantitative mass spectrometry using the TMT 6-plex reagent according to the manufactures instructions and were subsequently combined for mass spectrometric analysis.
(§2) Mass spectrometric analysis of the labeled and combined peptide fractions was carried out by on-line nanoLC-MS/MS. The samples were loaded directly by an Agilent 1200 nanoflow system (Agilent Technologies) on a 15 cm fused silica emitter (New Objective) packed in-house with reversed phase material (Reprusil-Pur C18-AQ, 3 μm, Dr. Maisch GmbH) at a flow of […]. The bound peptides were eluted by a gradient from 2% to 40% solvent B (80% ACN, 0.5% HOAc) at a flow of […] and sprayed directly into an LTQ-Orbitrap XL mass spectrometer (Thermo Fischer Scientific) at a spray voltage of 2 kV applying a nano electrospray ion source (ProxeonBiosystems). […] The resulting fragmentation spectra were also recorded in the linear ion trap.
(§3) Regarding the search parameters, the minimal peptide length was set to 6 amino acids, trypsin was selected as proteolytic enzyme and maximally 2 missed cleavage sites were allowed. […] The intensities of the TMT reporter ions were read from the msm files. […]

The target of the next test is T2, MLTK (Homo sapiens, UniProt Q9NYL2).
T2 construct: endogenous in cells; host or cells: PC9 cells (lysate)
T2 sequence (Q9NYL2 whole entry): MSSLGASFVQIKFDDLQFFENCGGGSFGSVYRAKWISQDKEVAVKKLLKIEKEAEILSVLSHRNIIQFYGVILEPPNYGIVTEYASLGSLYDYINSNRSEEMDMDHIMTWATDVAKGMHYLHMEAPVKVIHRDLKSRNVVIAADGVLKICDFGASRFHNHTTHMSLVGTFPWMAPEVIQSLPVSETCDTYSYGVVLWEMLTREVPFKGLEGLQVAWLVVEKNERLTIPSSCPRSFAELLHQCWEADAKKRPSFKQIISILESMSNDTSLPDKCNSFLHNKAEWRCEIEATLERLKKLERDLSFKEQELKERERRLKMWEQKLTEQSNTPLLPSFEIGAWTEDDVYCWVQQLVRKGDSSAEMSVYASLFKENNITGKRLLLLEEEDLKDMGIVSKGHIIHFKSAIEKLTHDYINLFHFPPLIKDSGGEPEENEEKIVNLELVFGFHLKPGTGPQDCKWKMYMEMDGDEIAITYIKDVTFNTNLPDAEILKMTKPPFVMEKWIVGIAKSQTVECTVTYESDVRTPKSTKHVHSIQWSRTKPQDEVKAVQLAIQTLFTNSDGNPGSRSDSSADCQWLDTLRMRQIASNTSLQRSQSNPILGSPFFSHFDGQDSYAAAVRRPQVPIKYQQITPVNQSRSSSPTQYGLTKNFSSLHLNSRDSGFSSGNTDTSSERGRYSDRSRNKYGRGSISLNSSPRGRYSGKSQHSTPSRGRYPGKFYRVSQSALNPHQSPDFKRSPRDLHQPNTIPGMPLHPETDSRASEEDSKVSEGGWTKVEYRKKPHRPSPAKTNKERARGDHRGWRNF
The test can be described thus: KinAffinity target profiling. To be noted: PC9 cell extract, read-out: KD_free. It is filed as binding. Here is the method: as §1, §2, §3

Another test deals with T3, PTK6 (Homo sapiens, UniProt Q13882).
T3 construct: PC9 cells were lysed in buffer; endogenous in cells; host or cells: PC9 (NSCLC) cell extract
T3 sequence (Q13882 whole entry): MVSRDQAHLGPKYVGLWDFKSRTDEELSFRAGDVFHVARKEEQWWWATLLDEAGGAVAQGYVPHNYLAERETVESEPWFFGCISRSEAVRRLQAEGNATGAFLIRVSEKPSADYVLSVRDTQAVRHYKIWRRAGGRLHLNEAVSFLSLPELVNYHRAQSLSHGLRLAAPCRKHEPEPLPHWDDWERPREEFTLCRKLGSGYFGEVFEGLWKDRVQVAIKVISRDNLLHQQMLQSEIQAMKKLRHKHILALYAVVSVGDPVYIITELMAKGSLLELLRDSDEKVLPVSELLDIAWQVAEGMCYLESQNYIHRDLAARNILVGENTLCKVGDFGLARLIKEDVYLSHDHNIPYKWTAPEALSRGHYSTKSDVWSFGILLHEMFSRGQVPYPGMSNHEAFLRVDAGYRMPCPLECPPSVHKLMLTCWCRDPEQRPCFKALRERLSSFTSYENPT
The test can be described thus: KinAffinity target profiling. To be noted: PC9 cell extract, read-out: KD_free. It is filed as binding. The procedure:
as §1, §2, §3

The target in another test is MAP2K1 (Homo sapiens, UniProt Q02750). The test can be described thus: biochemical. The procedure:
(§4) For in vitro association experiments 4×10^8 PC9 cells were lysed in buffer containing 20 mM HEPES pH 7.5, 400 mM NaCl. 0.25% Triton X-100, 1 mM DTT, 1.5 mM MgCl2, 0.5 mM ZnCl2, 0.5 mM EDTA, 0.5 mM EGTA, 1600 U/ml Benzonase plus additives (10 μg/ml aprotinin, 10 μg/ml leupeptin, 1 mM PMSF, 1 mM Na3VO4, 10 mM NaF). After centrifugation the supernatant was adjusted to 1 M NaCl, filtered through a 0.45 μm celluloseacetate filter and subjected to KinAffinity™ beads representing several different broad-spectrum kinase inhibitors immobilized on Sepharose beads. For each in vitro association experiment 750 μl cell extract (4 mg/ml) were incubated with 30 μl KinAffinity™ beads for 2.5 h at 4° C. […] The extracted peptides were derivatized for quantitative mass spectrometry using the TMT 6-plex reagent according to the manufactures instructions and were subsequently combined for mass spectrometric analysis.
(§5) Mass spectrometric analysis of the labeled and combined peptide fractions was carried out by on-line nanoLC-MS/MS. […] The resulting fragmentation spectra were also recorded in the linear ion trap.
as §3

The target in another test is MAP2K2 (Homo sapiens, UniProt P36507). Briefly: biochemical. The procedure:
as §4, §5, §3

The test system of another test is 23 tested kinases. Particulars: IVKA; cited from earlier work.
The mark [4] stands for this setting: Sos et al. 2009, read-out: GI50 literature.
Setting [5] is: Huang et al. 2007, read-out: GI50 literature.

SMILES strings stand for the structures. pIC50, pKd: −log10 of the molar value.

Sequence of MAP2K2 (P36507 whole entry): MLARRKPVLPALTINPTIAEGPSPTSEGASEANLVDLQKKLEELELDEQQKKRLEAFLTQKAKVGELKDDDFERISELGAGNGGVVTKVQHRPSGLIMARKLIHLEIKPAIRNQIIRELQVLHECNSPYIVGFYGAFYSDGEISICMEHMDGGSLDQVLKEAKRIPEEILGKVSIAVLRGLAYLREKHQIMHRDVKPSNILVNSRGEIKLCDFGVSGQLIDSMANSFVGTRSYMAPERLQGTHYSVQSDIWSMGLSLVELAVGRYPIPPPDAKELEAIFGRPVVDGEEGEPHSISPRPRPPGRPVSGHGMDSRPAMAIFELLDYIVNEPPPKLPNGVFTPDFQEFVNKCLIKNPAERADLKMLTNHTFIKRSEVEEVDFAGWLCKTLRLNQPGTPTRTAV
Sequence of MAP2K1 (Q02750 whole entry): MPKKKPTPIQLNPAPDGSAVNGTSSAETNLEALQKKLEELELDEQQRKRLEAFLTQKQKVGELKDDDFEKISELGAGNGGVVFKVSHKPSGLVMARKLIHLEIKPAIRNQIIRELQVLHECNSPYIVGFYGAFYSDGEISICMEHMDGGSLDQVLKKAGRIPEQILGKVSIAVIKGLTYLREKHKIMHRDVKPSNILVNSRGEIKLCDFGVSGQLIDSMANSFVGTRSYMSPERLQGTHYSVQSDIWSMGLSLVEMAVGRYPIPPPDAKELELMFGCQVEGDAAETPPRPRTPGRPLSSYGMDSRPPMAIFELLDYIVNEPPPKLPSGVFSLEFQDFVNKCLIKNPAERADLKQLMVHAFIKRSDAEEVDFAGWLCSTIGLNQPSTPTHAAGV
T1 sequence (P29317 24-976): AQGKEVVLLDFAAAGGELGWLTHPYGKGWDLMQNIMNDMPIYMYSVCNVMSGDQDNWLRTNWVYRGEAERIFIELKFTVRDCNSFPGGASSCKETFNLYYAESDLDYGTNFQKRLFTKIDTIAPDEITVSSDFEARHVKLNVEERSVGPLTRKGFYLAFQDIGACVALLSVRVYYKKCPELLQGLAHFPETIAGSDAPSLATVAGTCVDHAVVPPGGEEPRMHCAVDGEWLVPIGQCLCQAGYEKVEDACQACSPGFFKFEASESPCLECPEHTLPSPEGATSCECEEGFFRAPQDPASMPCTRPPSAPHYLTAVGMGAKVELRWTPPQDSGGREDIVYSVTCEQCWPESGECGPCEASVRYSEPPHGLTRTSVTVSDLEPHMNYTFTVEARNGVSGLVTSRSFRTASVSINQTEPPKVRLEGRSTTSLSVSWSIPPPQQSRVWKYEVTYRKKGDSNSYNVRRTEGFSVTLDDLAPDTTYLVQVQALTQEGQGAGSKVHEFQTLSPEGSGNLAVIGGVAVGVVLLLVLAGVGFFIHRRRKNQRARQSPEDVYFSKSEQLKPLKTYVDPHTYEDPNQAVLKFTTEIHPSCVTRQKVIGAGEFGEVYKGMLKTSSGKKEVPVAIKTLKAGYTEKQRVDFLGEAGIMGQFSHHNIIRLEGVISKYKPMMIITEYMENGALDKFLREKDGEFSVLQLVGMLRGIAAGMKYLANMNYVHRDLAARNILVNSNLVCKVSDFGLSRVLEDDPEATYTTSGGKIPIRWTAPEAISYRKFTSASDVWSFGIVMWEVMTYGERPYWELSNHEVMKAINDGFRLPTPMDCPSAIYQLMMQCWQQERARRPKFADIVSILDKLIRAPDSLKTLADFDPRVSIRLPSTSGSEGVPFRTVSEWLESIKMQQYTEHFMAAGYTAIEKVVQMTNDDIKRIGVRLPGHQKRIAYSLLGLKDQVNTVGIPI

`Cc1nc(Nc2ncc(C(=O)Nc3c(C)cccc3Cl)s2)cc(N2CCN(CCO)CC2)n1` [dasatinib, N-(2-chloro-6-methylphenyl)-2-[[6-[4-(2-hydroxyethyl)piperazin-1-yl]-2-methylpyrimidin-4-yl]amino]-1,3-thiazole-5-carboxamide]: the GI50 (commonly the concentration giving 50% growth inhibition) in the test with H2887 NSCLC cell line is 176 nM; in the test with H322 NSCLC cell line, 2100 nM; in test [1] it was 2800 nM; with H1666 NSCLC cell line (setting [4]), 175 nM; with H647 NSCLC cell line (setting [4]), 12400 nM; with HCC4006 NSCLC cell line (setting [4]), 838 nM. Also, the GI50 is 460 nM in the test with PC9 NSCLC cell line (setting [4]), 165 nM in test [2] (setting [5]) and 9.5 nM in test [3] (setting [5]). The Sensitivity class (with H1666 NSCLC cell line; in test [3]) was less than 1000 nM throughout. Also, the pIC50 with H647 NSCLC cell line (read-out: Class) was less than 6.00; in the test on HCC4006 NSCLC cell line (read-out: Class), greater than 6.00; in the test on PC9 NSCLC cell line (read-out: Class), greater than 6.00; in test [2] (read-out: Class), greater than 6.00. Moreover, in the test on advanced NSCLC, the metabolic responses entry is “eleven”. In addition, the partial response entry in the test with advanced NSCLC was “one”.

As to `CN1CCN(CCOc2cc(OC3CCOCC3)c3c(Nc4c(Cl)ccc5c4OCO5)ncnc3c2)CC1` [saracatinib, N-(5-Chloro-1,3-benzodioxol-4-yl)-7-[2-(4-methyl-1-piperazinyl)ethoxy]-5-[(tetrahydro-2H-pyran-4-yl)oxy]-4-quinazolinamine], the pKd on EPHA2 was 6.97; at MLTK, 6.12; on PTK6, 7.52; at MAP2K1, 5.91; on MAP2K2, 5.64. For the same molecule, the “number of tested kinases submicromolar” value in the test with 23 tested kinases is listed as 13 of 23 tested submicromolar.
